ChEMBL document CHEMBL1147101, “Development and persistence of antimicrobial resistance in Pseudomonas aeruginosa: a longitudinal observation in mechanically ventilated patients” (Antimicrob Agents Chemother, 2007)
The source made the active and inactive calls. No cut-off for these calls is given here.

Tests used:
Format in all cases: functional, organism-based
Conditions in all cases: Trachea
Pseudomonas aeruginosa [1] = test: Antimicrobial activity against Pseudomonas aeruginosa 65.38-4 tracheal isolates from mechanically ventilated tuberculosis patient
Pseudomonas aeruginosa [2] = test: Antimicrobial activity against Pseudomonas aeruginosa 19B1 tracheal isolates from mechanically ventilated chronic respiratory insufficiency patient
Pseudomonas aeruginosa [3] = test: Antimicrobial activity against Pseudomonas aeruginosa 65.38-2 tracheal isolates from mechanically ventilated tuberculosis patient
Pseudomonas aeruginosa [4] = test: Antimicrobial activity against Pseudomonas aeruginosa 24E1 tracheal isolates from mechanically ventilated chronic respiratory insufficiency patient
Pseudomonas aeruginosa [5] = test: Antimicrobial activity against Pseudomonas aeruginosa 16D5 tracheal isolates from mechanically ventilated chronic respiratory insufficiency patient
Pseudomonas aeruginosa [6] = test: Antimicrobial activity against Pseudomonas aeruginosa 19F2 tracheal isolates from mechanically ventilated chronic respiratory insufficiency patient
Pseudomonas aeruginosa [7] = test: Antimicrobial activity against Pseudomonas aeruginosa 13D6 tracheal isolates from mechanically ventilated chronic respiratory insufficiency patient
Pseudomonas aeruginosa [8] = test: Antimicrobial activity against Pseudomonas aeruginosa 19E1 tracheal isolates from mechanically ventilated chronic respiratory insufficiency patient
Pseudomonas aeruginosa [9] = test: Antimicrobial activity against Pseudomonas aeruginosa 9A10 tracheal isolates from mechanically ventilated chronic respiratory insufficiency patient
Pseudomonas aeruginosa [10] = test: Antimicrobial activity against Pseudomonas aeruginosa 12A7 tracheal isolates from mechanically ventilated chronic respiratory insufficiency patient
Pseudomonas aeruginosa [11] = test: Antimicrobial activity against Pseudomonas aeruginosa 13D11 tracheal isolates from mechanically ventilated chronic respiratory insufficiency patient
Pseudomonas aeruginosa [12] = test: Antimicrobial activity against Pseudomonas aeruginosa 3B1 tracheal isolates from mechanically ventilated tuberculosis patient
Pseudomonas aeruginosa [13] = test: Antimicrobial activity against Pseudomonas aeruginosa 22E3 tracheal isolates from mechanically ventilated chronic respiratory insufficiency patient
Pseudomonas aeruginosa [14] = test: Antimicrobial activity against Pseudomonas aeruginosa 19D10 tracheal isolates from mechanically ventilated chronic respiratory insufficiency patient
Pseudomonas aeruginosa [15] = test: Antimicrobial activity against Pseudomonas aeruginosa 13D3 tracheal isolates from mechanically ventilated chronic respiratory insufficiency patient
Pseudomonas aeruginosa [16] = test: Antimicrobial activity against Pseudomonas aeruginosa 19C5 tracheal isolates from mechanically ventilated chronic respiratory insufficiency patient
Pseudomonas aeruginosa [17] = test: Antimicrobial activity against Pseudomonas aeruginosa 19C2 tracheal isolates from mechanically ventilated chronic respiratory insufficiency patient
Pseudomonas aeruginosa [18] = test: Antimicrobial activity against Pseudomonas aeruginosa 19F1 tracheal isolates from mechanically ventilated chronic respiratory insufficiency patient
Pseudomonas aeruginosa [19] = test: Antimicrobial activity against Pseudomonas aeruginosa 2A1 tracheal isolates from mechanically ventilated tuberculosis patient
Pseudomonas aeruginosa [20] = test: Antimicrobial activity against Pseudomonas aeruginosa 24E6 tracheal isolates from mechanically ventilated chronic respiratory insufficiency patient
Pseudomonas aeruginosa [21] = test: Antimicrobial activity against Pseudomonas aeruginosa 29G8 tracheal isolates from mechanically ventilated chronic respiratory insufficiency patient
Pseudomonas aeruginosa [22] = test: Antimicrobial activity against Pseudomonas aeruginosa 24E2 tracheal isolates from mechanically ventilated chronic respiratory insufficiency patient
Pseudomonas aeruginosa [23] = test: Antimicrobial activity against Pseudomonas aeruginosa 19C12 tracheal isolates from mechanically ventilated chronic respiratory insufficiency patient
Pseudomonas aeruginosa [24] = test: Antimicrobial activity against Pseudomonas aeruginosa 19E9 tracheal isolates from mechanically ventilated chronic respiratory insufficiency patient
Pseudomonas aeruginosa [25] = test: Antimicrobial activity against Pseudomonas aeruginosa 2A3 tracheal isolates from mechanically ventilated tuberculosis patient
Pseudomonas aeruginosa [26] = test: Antimicrobial activity against Pseudomonas aeruginosa 24D5 tracheal isolates from mechanically ventilated chronic respiratory insufficiency patient
Pseudomonas aeruginosa [27] = test: Antimicrobial activity against Pseudomonas aeruginosa 23C5 tracheal isolates from mechanically ventilated chronic respiratory insufficiency patient
Pseudomonas aeruginosa [28] = test: Antimicrobial activity against Pseudomonas aeruginosa 65.33-3 tracheal isolates from mechanically ventilated tuberculosis patient
Pseudomonas aeruginosa [29] = test: Antimicrobial activity against Pseudomonas aeruginosa 19E12 tracheal isolates from mechanically ventilated chronic respiratory insufficiency patient
Pseudomonas aeruginosa [30] = test: Antimicrobial activity against Pseudomonas aeruginosa 15G10 tracheal isolates from mechanically ventilated chronic respiratory insufficiency patient
Pseudomonas aeruginosa [31] = test: Antimicrobial activity against Pseudomonas aeruginosa 19E2 tracheal isolates from mechanically ventilated chronic respiratory insufficiency patient
Pseudomonas aeruginosa [32] = test: Antimicrobial activity against Pseudomonas aeruginosa 22D9 tracheal isolates from mechanically ventilated chronic respiratory insufficiency patient
Pseudomonas aeruginosa [33] = test: Antimicrobial activity against Pseudomonas aeruginosa 16D2 tracheal isolates from mechanically ventilated chronic respiratory insufficiency patient
Pseudomonas aeruginosa [34] = test: Antimicrobial activity against Pseudomonas aeruginosa 10A6 tracheal isolates from mechanically ventilated chronic respiratory insufficiency patient
Pseudomonas aeruginosa [35] = test: Antimicrobial activity against Pseudomonas aeruginosa 2F6 tracheal isolates from mechanically ventilated tuberculosis patient
Pseudomonas aeruginosa [36] = test: Antimicrobial activity against Pseudomonas aeruginosa 29H1 tracheal isolates from mechanically ventilated chronic respiratory insufficiency patient
Pseudomonas aeruginosa [37] = test: Antimicrobial activity against Pseudomonas aeruginosa 24D1 tracheal isolates from mechanically ventilated chronic respiratory insufficiency patient
Pseudomonas aeruginosa [38] = test: Antimicrobial activity against Pseudomonas aeruginosa 15G2 tracheal isolates from mechanically ventilated chronic respiratory insufficiency patient
Pseudomonas aeruginosa [39] = test: Antimicrobial activity against Pseudomonas aeruginosa IA5 tracheal isolates from mechanically ventilated tuberculosis patient
Pseudomonas aeruginosa [40] = test: Antimicrobial activity against Pseudomonas aeruginosa 24F4 tracheal isolates from mechanically ventilated chronic respiratory insufficiency patient
Pseudomonas aeruginosa [41] = test: Antimicrobial activity against Pseudomonas aeruginosa 65.33-4 tracheal isolates from mechanically ventilated tuberculosis patient
Pseudomonas aeruginosa [42] = test: Antimicrobial activity against Pseudomonas aeruginosa 1A9 tracheal isolates from mechanically ventilated tuberculosis patient
Pseudomonas aeruginosa [43] = test: Antimicrobial activity against Pseudomonas aeruginosa 65.36-2 tracheal isolates from mechanically ventilated tuberculosis patient

## NCC[C@H](O)C(=O)N[C@@H]1C[C@H](N)[C@@H](O[C@H]2O[C@H](CN)[C@@H](O)[C@H](O)[C@H]2O)[C@H](O)[C@H]1O[C@H]1O[C@H](CO)[C@@H](O)[C@H](N)[C@H]1O
Pseudomonas aeruginosa [1]
  Activity: inactive
Pseudomonas aeruginosa [2]
  Activity: Active
Pseudomonas aeruginosa [3]
  Activity: inactive
Pseudomonas aeruginosa [4]
  Activity: Active
Pseudomonas aeruginosa [5]
  Activity: Active
Pseudomonas aeruginosa [6]
  Activity: Active
Pseudomonas aeruginosa [7]
  Activity: Active
Pseudomonas aeruginosa [8]
  Activity: Active
Pseudomonas aeruginosa [9]
  Activity: Active
Pseudomonas aeruginosa [10]
  Activity: Active
Pseudomonas aeruginosa [11]
  Activity: Active
Pseudomonas aeruginosa [12]
  Activity: Active
Pseudomonas aeruginosa [13]
  Activity: Active
Pseudomonas aeruginosa [14]
  Activity: Active
Pseudomonas aeruginosa [15]
  Activity: Active
Pseudomonas aeruginosa [16]
  Activity: Active
Pseudomonas aeruginosa [17]
  Activity: Active
Pseudomonas aeruginosa [18]
  Antimicrobial activity: Active
Pseudomonas aeruginosa [19]
  Activity: Active
Pseudomonas aeruginosa [20]
  Activity: Active
Pseudomonas aeruginosa [21]
  Activity: Active
Pseudomonas aeruginosa [22]
  Activity: Active
Pseudomonas aeruginosa [23]
  Activity: Active
Pseudomonas aeruginosa [24]
  Activity: Active
Pseudomonas aeruginosa [25]
  Activity: Active
Pseudomonas aeruginosa [26]
  Activity: Active
Pseudomonas aeruginosa [27]
  Activity: Active
Pseudomonas aeruginosa [28]
  Activity: inactive
Pseudomonas aeruginosa [29]
  Activity: Active
Pseudomonas aeruginosa [30]
  Activity: Active
Pseudomonas aeruginosa [31]
  Activity: Active
Pseudomonas aeruginosa [32]
  Activity: Active
Pseudomonas aeruginosa [33]
  Activity: Active
Pseudomonas aeruginosa [34]
  Activity: Active
Pseudomonas aeruginosa [35]
  Activity: inactive
Pseudomonas aeruginosa [36]
  Activity: Active
Pseudomonas aeruginosa [37]
  Activity: Active
Pseudomonas aeruginosa [38]
  Activity: Active
Pseudomonas aeruginosa [39]
  Activity: Active
Pseudomonas aeruginosa [40]
  Activity: Active

## GENTAMICIN
Pseudomonas aeruginosa [1]
  Activity: inactive
Pseudomonas aeruginosa [2]
  Activity: Active
Pseudomonas aeruginosa [3]
  Activity: inactive
Pseudomonas aeruginosa [4]
  Activity: Active
Pseudomonas aeruginosa [5]
  Activity: Active
Pseudomonas aeruginosa [6]
  Activity: Active
Pseudomonas aeruginosa [7]
  Activity: Active
Pseudomonas aeruginosa [8]
  Activity: Active
Pseudomonas aeruginosa [41]
  Activity: Active
Pseudomonas aeruginosa [9]
  Activity: Active
Pseudomonas aeruginosa [10]
  Activity: Active
Pseudomonas aeruginosa [11]
  Activity: Active
Pseudomonas aeruginosa [42]
  Activity: inactive
Pseudomonas aeruginosa [13]
  Activity: Active
Pseudomonas aeruginosa [14]
  Activity: Active
Pseudomonas aeruginosa [15]
  Activity: Active
Pseudomonas aeruginosa [16]
  Activity: Active
Pseudomonas aeruginosa [17]
  Activity: Active
Pseudomonas aeruginosa [18]
  Antimicrobial activity: Active
Pseudomonas aeruginosa [20]
  Activity: Active
Pseudomonas aeruginosa [21]
  Activity: Active
Pseudomonas aeruginosa [22]
  Activity: Active
Pseudomonas aeruginosa [23]
  Activity: Active
Pseudomonas aeruginosa [24]
  Activity: Active
Pseudomonas aeruginosa [26]
  Activity: Active
Pseudomonas aeruginosa [27]
  Activity: Active
Pseudomonas aeruginosa [28]
  Activity: inactive
Pseudomonas aeruginosa [29]
  Activity: Active
Pseudomonas aeruginosa [30]
  Activity: Active
Pseudomonas aeruginosa [43]
  Activity: inactive
Pseudomonas aeruginosa [31]
  Activity: Active
Pseudomonas aeruginosa [32]
  Activity: Active
Pseudomonas aeruginosa [33]
  Activity: Active
Pseudomonas aeruginosa [34]
  Activity: Active
Pseudomonas aeruginosa [35]
  Activity: inactive
Pseudomonas aeruginosa [36]
  Activity: Active
Pseudomonas aeruginosa [38]
  Activity: Active
